Reference: ChEMBL document CHEMBL5370592, “Synthesis and Structure-Activity Relationships of a New Class of Oxadiazoles Targeting DprE1 as Antitubercular Agents” (ACS Med Chem Lett, 2023)
In brackets after ≈: the same amount, converted by molar mass.

What was measured:
[1] = Cytotoxicity against human HepG2 cells assessed as reduction in cell viability incubated for 24 hrs in DMEM/10% FBS supplemented with galactose by CellTiter-Glo luminescent assay; assay type: toxicity, cell-based
[2] = Cytotoxicity against human HepG2 cells assessed as reduction in cell viability incubated for 24 hrs in DMEM/10% FBS supplemented with glucose by CellTiter-Glo luminescent assay; assay type: toxicity, cell-based
[3] = system: Mycobacterium tuberculosis; test: Antitubercular activity against Mycobacterium tuberculosis H37Rv ATCC 27294 assessed as inhibition of bacterial growth cultured in Middlebrook 7H9/glucose/casitone/tyloxapol medium for 2 weeks; assay type: functional; conditions: H37Rv ATCC 27294, 336 h
[4] = system: Mycobacterium tuberculosis; test: Antitubercular activity against Mycobacterium tuberculosis H37Rv ATCC 27294 assessed as inhibition of bacterial growth cultured in Middlebrook 7H9/BSA/Tyloxapol with glucose medium for 2 weeks; assay type: functional; conditions: H37Rv ATCC 27294, 336 h
[5] = system: Mycobacterium tuberculosis; test: Antitubercular activity against Mycobacterium tuberculosis K13b00DS assessed as inhibition of bacterial growth incubated for 2 weeks; assay type: functional; conditions: 336 h
[6] = system: Mycobacterium tuberculosis; test: Antitubercular activity against Mycobacterium tuberculosis K14b00DS assessed as inhibition of bacterial growth incubated for 2 weeks; assay type: functional; conditions: 336 h
[7] = system: Mycobacterium tuberculosis; test: Antitubercular activity against Mycobacterium tuberculosis K04b00DS assessed as inhibition of bacterial growth incubated for 2 weeks; assay type: functional; conditions: 336 h
[8] = system: Mycobacterium tuberculosis; test: Antitubercular activity against Mycobacterium tuberculosis CDC1551 assessed as inhibition of bacterial growth incubated for 2 weeks; assay type: functional; conditions: CDC1551, 336 h
[9] = system: Mycobacterium tuberculosis; test: Antitubercular activity against Mycobacterium tuberculosis K17b00DS assessed as inhibition of bacterial growth incubated for 2 weeks; assay type: functional; conditions: 336 h
[10] = system: Mycobacterium tuberculosis; test: Antitubercular activity against Mycobacterium tuberculosis K10b00DS assessed as inhibition of bacterial growth incubated for 2 weeks; assay type: functional; conditions: 336 h
[11] = system: Mycobacterium tuberculosis; test: Antitubercular activity against Mycobacterium tuberculosis Erdman assessed as inhibition of bacterial growth incubated for 2 weeks; assay type: functional; conditions: 336 h
[12] = system: Mycobacterium tuberculosis; test: Antitubercular activity against Mycobacterium tuberculosis K11b00DS assessed as inhibition of bacterial growth incubated for 2 weeks; assay type: functional; conditions: 336 h
[13] = system: Mycobacterium tuberculosis; test: Antitubercular activity against Mycobacterium tuberculosis K35b00DS assessed as inhibition of bacterial growth incubated for 2 weeks; assay type: functional; conditions: 336 h
[14] = system: Mycobacterium tuberculosis; test: Antitubercular activity against Mycobacterium tuberculosis K16b00DS assessed as inhibition of bacterial growth incubated for 2 weeks; assay type: functional; conditions: 336 h
[15] = system: Mycobacterium tuberculosis; test: Antitubercular activity against Mycobacterium tuberculosis HN878 assessed as inhibition of bacterial growth incubated for 2 weeks; assay type: functional; conditions: HN878, 336 h
[16] = system: Mycobacterium tuberculosis; test: Antitubercular activity against Mycobacterium tuberculosis K12b00DS assessed as inhibition of bacterial growth incubated for 2 weeks; assay type: functional; conditions: 336 h
[17] = system: Mycobacterium tuberculosis; test: Antitubercular activity against Mycobacterium tuberculosis clinical strain K5072429 assessed as inhibition of bacterial growth incubated for 2 weeks; assay type: functional; conditions: K5072429, 336 h
[18] = system: Mycobacterium tuberculosis; test: Antitubercular activity against Mycobacterium tuberculosis K09b00DS assessed as inhibition of bacterial growth incubated for 2 weeks; assay type: functional; conditions: 336 h
[19] = system: Mycobacterium tuberculosis; test: Antitubercular activity against Mycobacterium tuberculosis H37Rv ATCC 27294 assessed as inhibition of bacterial growth incubated for 2 weeks; assay type: functional; conditions: H37Rv ATCC 27294, 336 h
[20] = system: Mycobacterium tuberculosis; test: Antitubercular activity against Mycobacterium tuberculosis K15b00DS assessed as inhibition of bacterial growth incubated for 2 weeks; assay type: functional; conditions: 336 h
[21] = system: Mycobacterium tuberculosis; test: Antitubercular activity against Mycobacterium tuberculosis K05b00DS assessed as inhibition of bacterial growth incubated for 2 weeks; assay type: functional; conditions: 336 h
[22] = system: Mycobacterium tuberculosis; test: Antitubercular activity against Mycobacterium tuberculosis K07b00DS assessed as inhibition of bacterial growth incubated for 2 weeks; assay type: functional; conditions: 336 h
[23] = system: Mycobacterium tuberculosis; test: Antitubercular activity against Mycobacterium tuberculosis NIH_G12 assessed as inhibition of bacterial growth incubated for 2 weeks; assay type: functional; conditions: NIH_G12, 336 h

Row | SMILES | IC50 at 24 h [1] [µM] | IC50 at 24 h [2] [µM] | MIC [3] [µM] | MIC [4] [µM] | also measured
1 | O=C(C1CCN(c2nnc(-c3ccncc3)o2)CC1)N1CCC(Cc2ccccc2)CC1 | 37.5 | > 50 | 0.39 (≈ 0.168 µg/mL) | 1.2 (≈ 0.518 µg/mL) | 
2 | O=C(C1CCN(c2nnc(-c3ccc(F)cc3)o2)CC1)N1CCC(Cc2ccccc2)CC1 | > 50 | > 50 | 0.15 (≈ 0.0673 µg/mL) | 1.2 (≈ 0.538 µg/mL) | 
3 | O=C(CC1CCN(c2nnc(-c3ccccc3)o2)CC1)N1CCC(Cc2ccccc2)CC1 | 37.5 | > 50 | 4.7 (≈ 2.09 µg/mL) | 12.5 (≈ 5.56 µg/mL) | 
4 | O=C(C1CCN(c2nnc(-c3ccccc3)s2)CC1)N1CCC(Cc2ccccc2)CC1 | 37.5 | > 50 | 0.3 (≈ 0.134 µg/mL) | 1.2 (≈ 0.536 µg/mL) | 
5 | CC(C)C1CCN(C(=O)C2CCN(c3nnc(-c4ccccc4)o3)CC2)CC1 | > 50 | > 50 | 2.3 (≈ 0.88 µg/mL) | 4.7 (≈ 1.8 µg/mL) | 
6 | O=C(C1CCCN(c2nnc(-c3ccccc3)o2)C1)N1CCC(Cc2ccccc2)CC1 (centres undefined) | 37.5 | > 50 | 25 (≈ 10.8 µg/mL) | 50 (≈ 21.5 µg/mL) | 
7 | O=C(C1CCN(c2nnc(-c3ccccc3)o2)CC1)N1CCC(Cc2ccc(C(F)(F)F)cc2)CC1 | 37.5 | > 50 | 0.1 (≈ 0.0499 µg/mL) | 0.3 (≈ 0.15 µg/mL) | 
8 | CN1CCN(C(=O)C2CCN(c3nnc(-c4ccccc4)o3)CC2)CC1 | > 50 | > 50 | > 50 | > 50 | 
9 | CC(C)(C)C1CCN(C(=O)C2CCN(c3nnc(-c4ccccc4)o3)CC2)CC1 | > 50 | > 50 | 1.2 (≈ 0.476 µg/mL) | 4.7 (≈ 1.86 µg/mL) | 
10 | CC(c1ccccc1)C1CCN(C(=O)C2CCN(c3nnc(-c4ccccc4)o3)CC2)CC1 (centres undefined) | > 50 | > 50 | 0.2 (≈ 0.0889 µg/mL) | 1.56 (≈ 0.694 µg/mL) | 
11 | COc1nc2ccc(Br)cc2cc1[C@@H](c1ccccc1)[C@@](O)(CCN(C)C)c1cccc2ccccc12 [BEDAQUILINE] |  |  |  |  | MIC [5]: 0.1 µM (≈ 0.0556 µg/mL); MIC [6]: 0.6 µM (≈ 0.333 µg/mL); MIC [7]: 0.04 µM (≈ 0.0222 µg/mL); MIC [8]: 0.07 µM (≈ 0.0389 µg/mL); MIC [9]: 0.07 µM (≈ 0.0389 µg/mL); MIC [10]: 0.1 µM (≈ 0.0556 µg/mL); MIC [11]: 0.1 µM (≈ 0.0556 µg/mL); MIC [12]: 0.3 µM (≈ 0.167 µg/mL); MIC [13]: 0.07 µM (≈ 0.0389 µg/mL); MIC [14]: 0.1 µM (≈ 0.0556 µg/mL); MIC [15]: 0.05 µM (≈ 0.0278 µg/mL); MIC [16]: 0.04 µM (≈ 0.0222 µg/mL); MIC [17]: 0.2 µM (≈ 0.111 µg/mL); MIC [18]: 0.2 µM (≈ 0.111 µg/mL); MIC [19]: 0.15 µM (≈ 0.0833 µg/mL); MIC [20]: 0.07 µM (≈ 0.0389 µg/mL); MIC [21]: 0.05 µM (≈ 0.0278 µg/mL); MIC [22]: 0.15 µM (≈ 0.0833 µg/mL); MIC [23]: 0.05 µM (≈ 0.0278 µg/mL)
12 | O=C(C1CCN(c2noc(-c3ccccc3)n2)CC1)N1CCC(Cc2ccccc2)CC1 | 37.5 | > 50 | 0.3 (≈ 0.129 µg/mL) | 1.2 (≈ 0.517 µg/mL) | 
13 | O=C(C1CCN(c2nnc(-c3ccccc3)o2)CC1)N1CCC(=Cc2ccccc2)CC1 | 37.5 | > 50 | 0.3 (≈ 0.129 µg/mL) | 2.3 (≈ 0.986 µg/mL) | 
14 | O=C(C1CCN(c2nnc(-c3ccccc3)o2)CC1)N1CCCCC1 | > 50 | > 50 | > 50 | > 50 | 
15 | O=C(c1ccccc1)C1CCN(C(=O)C2CCN(c3nnc(-c4ccccc4)o3)CC2)CC1 | 37.5 | > 50 | 4.7 (≈ 2.09 µg/mL) | 9.4 (≈ 4.18 µg/mL) | 
16 | O=C(C1CCN(c2nnc(-c3ccccc3)o2)CC1)N1CCN(Cc2ccccc2)CC1 | > 50 | > 50 | 25 (≈ 10.8 µg/mL) | 50 (≈ 21.6 µg/mL) | 
